In PubChem BioAssay (NCI) one finds GI50 and TGI data, which are given here for 8 compounds.

Each structure is given as a SMILES string.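 The compound was tested at five concentrations on cells cultured in 96-well plates, with a 48-hour exposure period. GI50: concentration for 50% inhibition of growth. TGI: concentration producing complete growth inhibition.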 Bounds are passed on as bounds.

Among the test systems are CAKI-1 renal; CCRF-CEM leukemia; DU-145 prostate; MDA-MB-231 breast; MOLT-4 leukemia; NCI-H226 lung; OVCAR-3 ovarian; PC-3 prostate; SN12C renal; SNB-19 CNS.
Experiment in all cases: NCI-60 cell line screen, 48 h

On to `O=C(Cc1ccc(Nc2ccnc(C(F)(F)F)c2)cc1)Nc1cc(Cl)ccc1O`, for which the GI50 in the test with CAKI-1 renal was 13.7 µM; in the test on CCRF-CEM leukemia, 1680 nM; with DU-145 prostate, 9270 nM; in the test on MDA-MB-231 breast, 4920 nM; in the test with MOLT-4 leukemia, 1730 nM; with NCI-H226 lung, 10300 nM. Further, the GI50 in the test with OVCAR-3 ovarian was 3370 nM; with PC-3 prostate it was 2580 nM; in the test with SN12C renal, 9.09 µM; in the test with SNB-19 CNS, 5310 nM. Further, the TGI was found to be 43.7 µM in the test with CAKI-1 renal; 7.63 µM with CCRF-CEM leukemia; 38.1 µM with DU-145 prostate; 24.2 µM with MDA-MB-231 breast; 5.39 µM in the test on MOLT-4 leukemia; 32.3 µM with NCI-H226 lung. The TGI was 13.6 µM in the test on OVCAR-3 ovarian, 12.4 µM with PC-3 prostate, 38.5 µM with SN12C renal and 38 µM in the test on SNB-19 CNS.
Take `COc1ccc2c(c1)[nH]c(=O)c1c3cc(OC)c(OC)cc3cn21`: the GI50 in the test on CAKI-1 renal was under 0.01 µM; in the test with CCRF-CEM leukemia it was under 11.4 nM; with DU-145 prostate it was under 10 nM; with MDA-MB-231 breast, 21.9 nM; in the test with MOLT-4 leukemia, under 15.9 nM; in the test on NCI-H226 lung, 70.1 nM. Besides, the GI50 is under 10 nM in the test with OVCAR-3 ovarian, under 10 nM in the test on PC-3 prostate, 0.0124 µM with SN12C renal and 16 nM with SNB-19 CNS. Besides, the TGI with CAKI-1 renal was under 0.01 µM; in the test on CCRF-CEM leukemia it was 1.12 µM; in the test on DU-145 prostate, 0.0594 µM; in the test with MDA-MB-231 breast, 1.06 µM; in the test with MOLT-4 leukemia it was 1.16 µM; in the test on NCI-H226 lung, 24.4 µM. For the same compound, the TGI in the test on OVCAR-3 ovarian is under 0.01 µM; in the test with PC-3 prostate it was 1.6 µM; with SN12C renal it was 15.2 µM; in the test with SNB-19 CNS, 22.3 µM.
As to `O=C(Cc1csc2nc(-c3ccc(Br)cc3)cn12)N/N=C/c1ccc(Cl)cc1Cl`, the GI50 with CAKI-1 renal is 36.1 µM; with CCRF-CEM leukemia, 40000 nM; with DU-145 prostate it was 26300 nM; in the test with MDA-MB-231 breast, 26200 nM; in the test on NCI-H226 lung, 31800 nM; in the test on OVCAR-3 ovarian it was 34900 nM. In addition, the GI50 with PC-3 prostate is 30200 nM; in the test with SN12C renal, 84.7 µM; with SNB-19 CNS, 94600 nM. In addition, the TGI was over 100 µM in the test on CAKI-1 renal; over 100 µM in the test on CCRF-CEM leukemia; over 100 µM in the test with DU-145 prostate; over 100 µM in the test with MDA-MB-231 breast; 26.3 µM with MOLT-4 leukemia; 92.2 µM in the test on NCI-H226 lung. Further, the TGI in the test on OVCAR-3 ovarian, in the test with PC-3 prostate, with SN12C renal and in the test with SNB-19 CNS was over 100 µM throughout.
As for `O=C(Cn1c(C(=O)c2ccc(Cl)cc2)nc(-c2ccccc2)c1-c1ccccc1)c1ccc(Cl)cc1`, the GI50 was over 100 µM with CAKI-1 renal; over 100000 nM with CCRF-CEM leukemia; over 100000 nM in the test on DU-145 prostate; over 100000 nM in the test with MDA-MB-231 breast; over 100000 nM with MOLT-4 leukemia; over 100000 nM with NCI-H226 lung. The GI50 with OVCAR-3 ovarian was over 100000 nM; with PC-3 prostate, over 100000 nM; with SN12C renal, over 100 µM; with SNB-19 CNS, over 100000 nM. The TGI in the test with CAKI-1 renal, with CCRF-CEM leukemia, in the test with DU-145 prostate, with MDA-MB-231 breast, with MOLT-4 leukemia and with NCI-H226 lung was over 100 µM throughout. Moreover, the TGI with OVCAR-3 ovarian, in the test on PC-3 prostate, in the test on SN12C renal and with SNB-19 CNS was over 100 µM throughout.
Consider `Cc1cn([C@H]2C[C@H](O)[C@@H](CO)O2)c(=O)nc1N`, for which the TGI with CAKI-1 renal, in the test on CCRF-CEM leukemia, in the test on DU-145 prostate, in the test on MDA-MB-231 breast, in the test with MOLT-4 leukemia and in the test on NCI-H226 lung was over 100 µM in each case. Besides, the TGI in the test with OVCAR-3 ovarian, in the test on PC-3 prostate, with SN12C renal and in the test on SNB-19 CNS was over 100 µM throughout.
`CN(C)c1ccc(Nc2c3ccccc3nc3cc(NC(=O)CCN4CCCC4)ccc23)cc1`: the GI50 is 0.594 µM with CAKI-1 renal; 77.8 nM with CCRF-CEM leukemia; 155 nM with DU-145 prostate; 1230 nM in the test with MDA-MB-231 breast; 42 nM in the test on MOLT-4 leukemia; 577 nM with NCI-H226 lung. Besides, the GI50 is 810 nM in the test with OVCAR-3 ovarian, 577 nM with PC-3 prostate, 0.197 µM in the test on SN12C renal and 305 nM with SNB-19 CNS. The TGI in the test on CAKI-1 renal was found to be 2.19 µM; with CCRF-CEM leukemia, 1.38 µM; with DU-145 prostate it was 1.19 µM; in the test with MDA-MB-231 breast, 2.92 µM; with MOLT-4 leukemia, 1.07 µM; with NCI-H226 lung, 2.59 µM. Besides, the TGI in the test on OVCAR-3 ovarian was 2.25 µM; in the test with PC-3 prostate, 2.17 µM; in the test with SN12C renal, 1.25 µM; in the test with SNB-19 CNS, 1.64 µM.
On to `NC(=O)c1sc(-n2cnc3ccc(C(F)(F)F)cc32)cc1OCc1ccccc1Br`, for which the GI50 is 15.3 µM in the test on CAKI-1 renal; 685 nM in the test on CCRF-CEM leukemia; 942 nM with DU-145 prostate; 1620 nM with MDA-MB-231 breast; 965 nM in the test with MOLT-4 leukemia; 1940 nM in the test with NCI-H226 lung. Also, the GI50 with OVCAR-3 ovarian was 762 nM; in the test on PC-3 prostate it was 2310 nM; in the test on SN12C renal, 3.81 µM; with SNB-19 CNS, 2790 nM. Besides, the TGI was over 25 µM with CAKI-1 renal; over 25 µM in the test with CCRF-CEM leukemia; 3.89 µM with DU-145 prostate; 19.3 µM in the test with MDA-MB-231 breast; over 25 µM in the test on MOLT-4 leukemia; 18.6 µM with NCI-H226 lung. Moreover, the TGI was 2.55 µM in the test on OVCAR-3 ovarian, over 25 µM in the test on PC-3 prostate, over 25 µM in the test with SN12C renal and over 25 µM in the test on SNB-19 CNS.
Turning to `CCCCCCCCNC(C)C(O)c1ccc(SC(C)C)cc1` (centres undefined), the GI50 was 1.54 µM with CAKI-1 renal; 2440 nM in the test on CCRF-CEM leukemia; 1860 nM with DU-145 prostate; 1800 nM in the test on MDA-MB-231 breast; 2480 nM in the test on MOLT-4 leukemia; 1810 nM in the test on NCI-H226 lung. In addition, the GI50 with OVCAR-3 ovarian is 1980 nM; with PC-3 prostate, 1580 nM; with SN12C renal it was 1.57 µM; in the test with SNB-19 CNS it was 1640 nM. The TGI with CAKI-1 renal came to 3.08 µM; in the test with CCRF-CEM leukemia, 7.19 µM; in the test with DU-145 prostate, 3.27 µM; in the test with MDA-MB-231 breast, 3.31 µM; in the test on MOLT-4 leukemia, 5.27 µM; in the test on NCI-H226 lung it was 3.85 µM. In addition, the TGI turned out to be 3.46 µM in the test on OVCAR-3 ovarian, 3.02 µM in the test with PC-3 prostate, 3.13 µM with SN12C renal and 3.28 µM in the test with SNB-19 CNS.
